According to US20230271954A1 (Gossamer Bio Services, Inc., priority 2020, published 2023):

Assays:
DGKζ = target: T1, DGKζ (Homo sapiens, UniProt Q13574); test: DGKζ biochemical assay (ADP-Glo); conditions: read-out: DGK ζ IC50
T1 construct: purchased Carna 12-110

DGKα = DGKα (Homo sapiens, UniProt P23743); test: DGKα biochemical assay (ADP-Glo); conditions: read-out: DGK α IC50
In short: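 ADP-Glo kinase assay using OAG/PS (1:2) lipid substrate, sonicated, in HEPES pH 7.0 buffer with MgCl2, CaCl2, DTT, BSA, Triton X-100. Enzyme preincubated with compound 30 min at RT; substrate with ATP (DGKα: 400 μM) added, 45 min RT. Luminescence read; % inhibition vs DMSO and no-enzyme controls.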

Sequence of DGKα (P23743 whole entry): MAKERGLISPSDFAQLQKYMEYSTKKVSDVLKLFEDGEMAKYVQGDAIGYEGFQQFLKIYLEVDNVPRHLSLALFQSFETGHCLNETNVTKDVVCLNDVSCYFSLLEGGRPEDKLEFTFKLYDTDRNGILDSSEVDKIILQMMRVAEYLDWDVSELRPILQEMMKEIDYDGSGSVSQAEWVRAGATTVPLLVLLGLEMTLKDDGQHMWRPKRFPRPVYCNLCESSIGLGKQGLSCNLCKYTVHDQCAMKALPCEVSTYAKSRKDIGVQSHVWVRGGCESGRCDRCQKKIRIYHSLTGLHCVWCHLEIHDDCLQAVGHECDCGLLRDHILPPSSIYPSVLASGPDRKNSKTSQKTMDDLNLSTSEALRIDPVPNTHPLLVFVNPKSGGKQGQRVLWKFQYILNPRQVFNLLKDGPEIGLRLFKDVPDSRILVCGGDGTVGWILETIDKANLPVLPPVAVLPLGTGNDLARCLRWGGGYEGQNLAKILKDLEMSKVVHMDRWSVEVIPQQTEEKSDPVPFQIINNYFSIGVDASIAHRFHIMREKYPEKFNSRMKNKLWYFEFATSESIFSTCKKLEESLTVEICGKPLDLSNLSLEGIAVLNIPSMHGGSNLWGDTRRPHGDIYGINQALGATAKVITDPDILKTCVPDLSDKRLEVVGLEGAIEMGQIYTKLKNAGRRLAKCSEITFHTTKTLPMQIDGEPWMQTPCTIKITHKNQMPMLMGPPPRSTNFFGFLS
T1 sequence (Q13574 1-929 isoform Q13574-4): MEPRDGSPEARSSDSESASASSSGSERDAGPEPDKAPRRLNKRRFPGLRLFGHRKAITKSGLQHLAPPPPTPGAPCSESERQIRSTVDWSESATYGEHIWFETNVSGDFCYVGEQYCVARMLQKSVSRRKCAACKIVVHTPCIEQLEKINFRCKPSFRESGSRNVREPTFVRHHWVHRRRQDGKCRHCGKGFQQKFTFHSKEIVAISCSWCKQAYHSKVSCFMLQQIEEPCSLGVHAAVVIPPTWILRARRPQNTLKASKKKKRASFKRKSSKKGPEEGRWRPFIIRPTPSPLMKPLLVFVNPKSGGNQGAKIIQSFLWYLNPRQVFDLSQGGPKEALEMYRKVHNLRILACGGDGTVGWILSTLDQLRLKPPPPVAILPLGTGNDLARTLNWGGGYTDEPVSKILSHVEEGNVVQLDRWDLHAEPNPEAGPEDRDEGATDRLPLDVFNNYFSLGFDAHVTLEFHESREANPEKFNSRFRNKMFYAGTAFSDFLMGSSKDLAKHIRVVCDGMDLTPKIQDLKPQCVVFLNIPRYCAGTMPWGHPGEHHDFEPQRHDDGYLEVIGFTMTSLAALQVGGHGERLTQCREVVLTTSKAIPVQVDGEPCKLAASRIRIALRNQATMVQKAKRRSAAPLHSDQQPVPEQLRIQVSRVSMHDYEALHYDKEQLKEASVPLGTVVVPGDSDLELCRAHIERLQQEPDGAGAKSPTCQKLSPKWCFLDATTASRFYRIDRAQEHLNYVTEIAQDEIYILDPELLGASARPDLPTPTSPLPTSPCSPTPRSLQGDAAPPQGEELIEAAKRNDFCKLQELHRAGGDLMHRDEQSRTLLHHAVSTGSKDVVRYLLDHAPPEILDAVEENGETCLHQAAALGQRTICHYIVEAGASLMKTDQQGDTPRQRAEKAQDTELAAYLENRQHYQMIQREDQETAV

Compound | IC50 (DGKζ) [nM] | IC50 (DGKα) [nM]
Cn1c(=O)cc(N(C)[C@H]2CC[C@@H](N(CC3CC3)c3ccc4c(c3)OCO4)CC2)c2nc(C#N)ccc21 [Example 75] | ≥ 1000 | 10 to 100
Cn1c(=O)cc(N(C)[C@H]2CC[C@H](N(CC3CC3)c3ccc(F)c(OC(F)F)c3)CC2)c2nc(C#N)ccc21 [Example 80] | ≥ 1000 | ≥ 1000
COc1cc(N(CC2CC2)[C@H]2CC[C@H](N(C)c3c(C#N)c(=O)n(C)c4ccc(Cl)nc34)CC2)cc(F)c1F [Example 85] | ≥ 1000 | < 10
Cn1c(=O)cc(N(C)[C@H]2CC[C@H](N(CC3CC3)c3ccc4c(c3)OCO4)CC2)c2nc(C#N)ccc21 [Example 88] | ≥ 1000 | ≥ 1000
Cc1cc(F)cc(N(CC2CC2)[C@H]2CC[C@H](N(C)c3cc(=O)n(C)c4ccc(C#N)nc34)CC2)c1 [Example 89] | ≥ 1000 | ≥ 1000
Cn1c(=O)cc(N(C)[C@H]2CC[C@H](N(CC3CC3)c3cc(F)cc(F)c3)CC2)c2nc(C#N)ccc21 [Example 90] | ≥ 1000 | ≥ 1000
COc1cc(N(C2CC2)[C@H]2CC[C@H](N(C)c3cc(=O)n(C)c4ccc(C#N)nc34)CC2)ccc1F [Example 93] | ≥ 1000 | 100 to 1000
Cn1c(=O)c(C#N)c(N(C)[C@H]2CC[C@H](N(CC3CC3)c3ccc(F)c(OC(F)F)c3)CC2)c2nc(Cl)ccc21 [Example 96] | ≥ 1000 | < 10
COc1cc(N(CC2CC2)[C@H]2CC[C@@H](N(C)c3c(C#N)c(=O)n(C)c4ccc(Cl)nc34)CC2)cc(F)c1F [Example 98] | 100 to 1000 | 100 to 1000
Cc1ccc(N(CC2CCC2)[C@H]2CC[C@@H](N(C)c3cc(=O)n(C)c4ccc(C#N)nc34)CC2)cc1 [Example 100] | ≥ 1000 | < 10
Cn1c(=O)c(C#N)c(N(C)[C@H]2CC[C@H](N(CC3CC3)c3cccnc3)CC2)c2nc(C#N)ccc21 [Example 103, trans-8-((4-((cyclopropylmethyl)(pyridin-3-yl)amino)cyclohexyl)(methyl)amino)-5-methyl-6-oxo-5,6-dihydro-1,5-naphthyridine-2,7-dicarbonitrile] | ≥ 1000 | ≥ 1000
Cc1cc(F)ccc1N(CC1CCC1)[C@H]1CC[C@H](N(C)c2c(C#N)c(=O)n(C)c3ccc(Cl)nc23)CC1 [Example 104, trans-6-chloro-4-((4-((cyclobutylmethyl)(4-fluoro-2-methylphenyl)amino)cyclohexyl)(methyl)amino)-1-methyl-2-oxo-1,2-dihydro-1,5-naphthyridine-3-carbonitrile] | ≥ 1000 | ≥ 1000
Cc1c(F)cccc1N(CC1CC1)[C@H]1CC[C@H](N(C)c2c(C#N)c(=O)n(C)c3ccc(Cl)nc23)CC1 [Example 105, trans-6-chloro-4-((4-((cyclopropylmethyl)(3-fluoro-2-methylphenyl)amino)cyclohexyl)(methyl)amino)-1-methyl-2-oxo-1,2-dihydro-1,5-naphthyridine-3-carbonitrile] | 100 to 1000 | ≥ 1000
Cc1cc(F)ccc1N(CC1CCC1)[C@H]1CC[C@H](N(C)c2c(C#N)c(=O)n(C)c3ccc(C#N)nc23)CC1 [Example 106, trans-8-((4-((cyclobutylmethyl)(4-fluoro-2-methylphenyl)amino)cyclohexyl)(methyl)amino)-5-methyl-6-oxo-5,6-dihydro-1,5-naphthyridine-2,7-dicarbonitrile] | 100 to 1000 | 100 to 1000
Cc1c(F)cccc1N(CC1CC1)[C@H]1CC[C@H](N(C)c2c(C#N)c(=O)n(C)c3ccc(C#N)nc23)CC1 [Example 107, trans-8-((4-((cyclopropylmethyl)(3-fluoro-2-methylphenyl)amino)cyclohexyl)(methyl)amino)-5-methyl-6-oxo-5,6-dihydro-1,5-naphthyridine-2,7-dicarbonitrile] | 100 to 1000 | ≥ 1000
COc1cc(F)ccc1N(CC1CC1)[C@H]1CC[C@H](N(C)c2c(C#N)c(=O)n(C)c3ccc(Cl)nc23)CC1 [Example 108, trans-6-chloro-4-((-4-((cyclopropylmethyl)(4-fluoro-2-methoxyphenyl)amino)cyclohexyl)(methyl)amino)-1-methyl-2-oxo-1,2-dihydro-1,5-naphthyridine-3-carbonitrile] | 100 to 1000 | 10 to 100
Cn1c(=O)c(C#N)c(N(C)[C@H]2CC[C@@H](N(CC3CCC3)c3cccc4c3OCO4)CC2)c2nc(Cl)ccc21 [Example 110, cis-4-((-4-(benzo[d][1,3]dioxol-4-yl(cyclobutylmethyl)amino)cyclohexyl)(methyl)amino)-6-chloro-1-methyl-2-oxo-1,2-dihydro-1,5-naphthyridine-3-carbonitrile] | 100 to 1000 | 10 to 100
Cn1c(=O)cc(N(C)[C@H]2CC[C@@H](N(CC3CCC3)c3cccc4c3OCO4)CC2)c2nc(C#N)ccc21 [Example 111, cis-8-((-4-(benzo[d][1,3]dioxol-4-yl(cyclobutylmethyl)amino)cyclohexyl)(methyl)amino)-5-methyl-6-oxo-5,6-dihydro-1,5-naphthyridine-2-carbonitrile] | 100 to 1000 | 100 to 1000
Cn1c(=O)c(C#N)c(N(C)[C@H]2CC[C@H](N(CC3CCC3)c3cccc4c3OCO4)CC2)c2nc(C#N)ccc21 [Example 112, trans-8-((-4-(benzo[d][1,3]dioxol-4-yl(cyclobutylmethyl)amino)cyclohexyl)(methyl)amino)-5-methyl-6-oxo-5,6-dihydro-1,5-naphthyridine-2,7-dicarbonitrile] | 100 to 1000 | 10 to 100
Cc1cc(F)cc(N(CC2CCC2)[C@H]2CC[C@@H](N(C)c3cc(=O)n(C)c4ccc(C#N)nc34)CC2)c1 [Example 114, cis-8-((-4-((cyclobutylmethyl)(3-fluoro-5-methylphenyl)amino)cyclohexyl)(methyl)amino)-5-methyl-6-oxo-5,6-dihydro-1,5-naphthyridine-2-carbonitrile] | ≥ 1000 | 10 to 100

Now from value to compound:

IC50 (DGKζ) [nM] | IC50 (DGKα) [nM] | Compound
100 to 1000 | 100 to 1000 | Cn1c(=O)c(C#N)c(N(C)[C@H]2CC[C@H](N(CC3CC3)c3ccc(F)c(OC(F)F)c3)CC2)c2nc(C#N)ccc21 [Example 76]
100 to 1000 | ≥ 1000 | COc1cc(N(CC2CC2)[C@H]2CC[C@H](N(C)c3c(C#N)c(=O)n(C)c4ccc(C#N)nc34)CC2)cc(F)c1F [Example 77]
10 to 100 | 100 to 1000 | Cn1c(=O)c(C#N)c(N(C)[C@H]2CC[C@@H](N(CC3CC3)c3ccc4c(c3)OCO4)CC2)c2nc(Cl)ccc21 [Example 78]
100 to 1000 | ≥ 1000 | Cn1c(=O)c(C#N)c(N(C)[C@H]2CC[C@H](N(CC3CC3)c3ccc4c(c3)OCO4)CC2)c2nc(C#N)ccc21 [Example 79]
10 to 100 | 10 to 100 | Cn1c(=O)c(C#N)c(N(C)[C@H]2CC[C@@H](N(CC3CC3)c3cc(F)cc(F)c3)CC2)c2nc(C#N)ccc21 [Example 81]
100 to 1000 | 10 to 100 | Cn1c(=O)cc(N(C)[C@H]2CC[C@@H](N(CC3CC3)c3cc(F)cc(F)c3)CC2)c2nc(C#N)ccc21 [Example 82]
100 to 1000 | 100 to 1000 | COc1cc(N(C2CC2)[C@H]2CC[C@@H](N(C)c3cc(=O)n(C)c4ccc(C#N)nc34)CC2)ccc1F [Example 83]
100 to 1000 | 10 to 100 | Cn1c(=O)cc(N(C)[C@H]2CC[C@@H](N(CC3CC3)c3ccc(F)c(OC(F)F)c3)CC2)c2nc(C#N)ccc21 [Example 84]
100 to 1000 | 100 to 1000 | Cn1c(=O)c(C#N)c(N(C)[C@H]2CC[C@H](N(CC3CC3)c3cc(F)cc(F)c3)CC2)c2nc(C#N)ccc21 [Example 86]
100 to 1000 | 100 to 1000 | Cc1cc(F)cc(N(CC2CC2)[C@H]2CC[C@H](N(C)c3c(C#N)c(=O)n(C)c4ccc(C#N)nc34)CC2)c1 [Example 87]
10 to 100 | < 10 | Cc1cc(N(CC2CCC2)[C@H]2CC[C@@H](N(C)c3c(C#N)c(=O)n(C)c4ccc(C#N)nc34)CC2)ccc1F [Example 91]
100 to 1000 | 10 to 100 | Cc1cc(N(CC2CCC2)[C@H]2CC[C@@H](N(C)c3cc(=O)n(C)c4ccc(C#N)nc34)CC2)ccc1F [Example 92]
100 to 1000 | 100 to 1000 | Cc1cc(F)cc(N(CC2CCC2)[C@H]2CC[C@H](N(C)c3c(C#N)c(=O)n(C)c4ccc(C#N)nc34)CC2)c1 [Example 94]
100 to 1000 | ≥ 1000 | COc1cc(N(CC2CC2)[C@H]2CC[C@H](N(C)c3cc(=O)n(C)c4ccc(C#N)nc34)CC2)cc(F)c1F [Example 95]
10 to 100 | < 10 | Cn1c(=O)c(C#N)c(N(C)[C@H]2CC[C@@H](N(CC3CCC3)c3ccc4c(c3)OCO4)CC2)c2nc(C#N)ccc21 [Example 97]
10 to 100 | < 10 | Cc1ccc(N(CC2CCC2)[C@H]2CC[C@@H](N(C)c3c(C#N)c(=O)n(C)c4ccc(C#N)nc34)CC2)cc1 [Example 99]
10 to 100 | ≥ 1000 | COc1cc(N(CC2CC2)[C@H]2CC[C@@H](N(C)c3c(C#N)c(=O)n(C)c4ccc(C#N)nc34)CC2)cc(OC)c1F [Example 101]
10 to 100 | 10 to 100 | Cn1c(=O)c(C#N)c(N(C)[C@H]2CC[C@@H](N(CC3CCC3)c3cccc4c3OCO4)CC2)c2nc(C#N)ccc21 [Example 109, cis-8-((-4-(benzo[d][1,3]dioxol-4-yl(cyclobutylmethyl)amino)cyclohexyl)(methyl)amino)-5-methyl-6-oxo-5,6-dihydro-1,5-naphthyridine-2,7-dicarbonitrile]
10 to 100 | 10 to 100 | Cc1cc(F)cc(N(CC2CCC2)[C@H]2CC[C@@H](N(C)c3c(C#N)c(=O)n(C)c4ccc(C#N)nc34)CC2)c1 [Example 113, cis-8-((-4-((cyclobutylmethyl)(3-fluoro-5-methylphenyl)amino)cyclohexyl)(methyl)amino)-5-methyl-6-oxo-5,6-dihydro-1,5-naphthyridine-2,7-dicarbonitrile]
